According to US4315939A, “Piperidine derivatives of 4,5-dialkyl-3-hydroxy-pyrrole-2-carboxylic acid esters, pharmaceutical formulations containing these compounds and use in treating cardiac arrhythmias” (priority 1979, dated 1982):
Where a name gives a salt, the structure may show the parent alone.

Assays:
Type in all cases: in vivo, rats (Sprague Dawley)
[1] = system: aconitine-induced arrhythmia of rats; assay: Anti-arrhythmic effect on aconitine-induced arrhythmia in rats, oral administration; conditions: for ED50 / Emax: Rattus norvegicus, po; for ED50: read-out: ED 50% (dose which lengthens the duration of aconitine infusion by 50%); for Emax: read-out: R.M.E. = relative maximum effect; for Maximum effect: lengthening of the duration of aconitine infusion, Δ%: at the maximum tolerated dose, oral, rats; for R.A. = relative activity: relative to Prajmalium = 1.00, from ED 50%; for anti-arrhythmic activity compared with Prajmalium: in words, aconitine-induced arrhythmia of rats
Procedure: (§1) To determine the anti-arrhythmic activity, the substances are administered orally to rats (Sprague Dawley, weight 200-250 g), 45 minutes before narcosis.
(§2) The animals are narcotized with sodium thiobutabarbital (100 mg/kg administered intraperitoneally). The arrhythmogenic substance used is aconitine, which is infused intravenously, at a rate of 0.005 mg/kg×min 60 minutes after the administration of the anti-arrhythmicagent. In untreated animals (N=52), arrhythmias manifest themselves in the electrocardiogram (ECG) after 2.74±0.07 min, and the occurrence of these can be delayed by the anti-arrhythmic agents, the delay being dependent on the dose.
The dose which lengthens the duration of infusion up to the occurrence of arrhythmias by 50%, namely the ED 50%, is determined from the linear relationships between log dose (mg/kg) of the test substance and the relative increase in the duration of aconitine infusion (Δ%).
(§3) For further characterization of the substances, the anti-arrhythmic effect of the maximum tolerated dose is determined from the decimal-geometric dose progression (factor 3.cuberoot.10) employed in the experiments. Furthermore, the dose at which toxic symptoms (changes in the initial ECG, cyanosis and cramps) occur is determined.
^(1) Dose which lengthens the duration of aconitine infusion by 50%
^(2) R.A. = relative activity. Prajmalium = 1.00
(§4) ^(3) Effect of the maximum tolerated dose
^(4) Lengthening of the duration of aconitin infusion, Δ %
^(5) R.M.E. = relative maximum effect, Prajmalium = 1.00

rats = assay: Toxicity / toleration in rats (changes in the initial ECG, cyanosis and cramps), oral administration; set-up: Toxicity: Dose whose administration produces the first toxic symptoms: unit: mg/kg; conditions: for Toxicity: Dose whose administration produces the first toxic symptoms / Q (therapeutic range, quotient of the toxic dose and the ED 50%): oral, rats; for Toxicity: Dose whose administration produces the first toxic symptoms: mg/kg printed only over the effective dose columns and in b40 (log dose); for Q (therapeutic range, quotient of the toxic dose and the ED 50%): toxic dose / ED 50%
Procedure: as §1, §2, §3, §4
(§5) ^(6) Dose whose administration produces the first toxic symptoms

[2] = as above; set-up: Toxicity: Dose whose administration produces the first toxic symptoms: unit: mg/kg; conditions: rat, in vivo; oral, rats; mg/kg printed only over the effective dose columns and in b40 (log dose); read-out: Maximum effect: Dose (maximum tolerated dose)
Procedure: as §1, §2, §3, §4, §5

SMILES	ED50 [1]	Emax [1]	Maximum effect: lengthening of the duration of aconitine infusion, Δ% [1]	R.A. = relative activity [1]	Toxicity: Dose whose administration produces the first toxic symptoms (rats)	Q (therapeutic range, quotient of the toxic dose and the ED 50%) (rats)	MTD [2]	anti-arrhythmic activity compared with Prajmalium [1]	toxic dose compared with Prajmalium (rats; in words)
CCOC(=O)c1[nH]c(C)c(C)c1OCC(O)CN1CCC(O)(c2ccccn2)CC1 (stereo not drawn) [Example 1, 3-[2-hydroxy-3-(4-α-pyridyl-4-hydroxy-piperidino)-propoxy]-4,5-dimethyl-pyrrole-2-carboxylic acid ethyl ester dihydrochloride]	7.8 mg/kg	186%	324%	0.64	100	13	46.4 mg/kg	–	–
CCOC(=O)c1[nH]c(C)c(C)c1OCC(O)CN1CCC(O)(c2ccccc2)CC1 (centres unmarked) [Example 2, 3-[2-hydroxy-3-(4-phenyl-4-hydroxy-piperidino)-propoxy]-4,5-dimethyl-pyrrole-2-carboxylic acid ethyl ester hydrochloride]	6.23 mg/kg	98%	170%	0.80	46.4	7.5	21.5 mg/kg	as active as Prajmalium	–
COC(=O)c1[nH]c(C)c(C)c1OCCCN1CCC(O)(c2ccccc2)CC1 [Example 6, 3-[3-(4-phenyl-4-hydroxy-piperidino)-propoxy]-4,5-dimethylpyrrole-2-carboxylic acid methyl ester]	3.68 mg/kg	87%	152%	1.36	21.5	5.8	10 mg/kg	surpass the latter	of equal toxicity to Prajmalium
COC(=O)c1[nH]c(C)c(C)c1OCC(O)CN1CCC(O)(c2ccccn2)CC1 (stereo not drawn) [Example 7, 3-[2-hydroxy-3-(4-α-pyridyl-4-hydroxy-piperidino)-propoxy]-4,5-dimethylpyrrole-2-carboxylic acid methyl ester]	13.5 mg/kg	176%	307%	0.37	100	7.4	46.4 mg/kg	–	–
CCOC(=O)c1[nH]c(C)c(C)c1OCCN1CCC(O)(c2ccccc2)CC1 [Example 10, 3-[2-(4-phenyl-4-hydroxy-piperidino)-ethoxy]-4,5-dimethylpyrrole-2-carboxylic acid ethyl ester]	2.99 mg/kg	199%	347%	1.67	46.4	16	21.5 mg/kg	surpass the latter	–
COC(=O)c1[nH]c(C)c(C)c1OCCCCN1CCC(O)(c2ccccc2)CC1 [Example 11, 3-[4-(4-phenyl-4-hydroxy-piperidino)-butoxy]-4,5-dimethylpyrrole-2-carboxylic acid methyl ester]	5.54 mg/kg	177%	308%	0.90	46.4	8.4	21.5 mg/kg	as active as Prajmalium	–
CCOC(=O)c1[nH]c(C)c(C)c1OCC(O)CN1CCC(O)(c2ccc(F)cc2)CC1 (centres unmarked) [Example 13, 3-[2-hydroxy-3-(4-(p-fluorophenyl)-4-hydroxy-piperidino)-propoxy]-4,5-dimethylpyrrole-2-carboxylic acid ethyl ester]	5.93 mg/kg	86%	149%	0.84	46.4	7.8	21.5 mg/kg	as active as Prajmalium	–
COC(=O)c1[nH]c(C)c(C)c1OCC(O)CN1CCC(O)(c2ccccc2)CC1 (centres unmarked) [Example 19, 3-[2-hydroxy-3-(4-phenyl-4-hydroxy-piperidino)-propoxy]-4,5-dimethyl-pyrrole-2-carboxylic acid methyl ester]	3.38 mg/kg	174%	302%	1.48	46.4	14	21.5 mg/kg	surpass the latter	–
CCCCc1c(C)[nH]c(C(=O)OCC)c1OCC(O)CN1CCC(O)(c2ccccc2)CC1 (centres unmarked) [Example 21, 3-[2-hydroxy-3-(4-phenyl-4-hydroxy-piperidino)-propoxy]-4-n-butyl-5-methyl-pyrrole-2-carboxylic acid ethyl ester]	9.85 mg/kg	99%	173%	0.51	100	10	46.4 mg/kg	–	–
CCC[N+]12C(O)C(CC)C3CC1C1N(C)c4ccccc4C14CC2C3C4O (centres unmarked) [Prajmalium, N-propylajmalin, reference compound]	4.99 mg/kg	100%	174%	1.00	21.5	4.3	10 mg/kg	–	–
